This is an account of results in patent publication US20070281938A1, “Inhibitors of 11-Beta-Hydroxy Steroid Dehydrogenase Type 1” (Amgen Inc., priority 2004, published 2007).

The target of this experiment is T1, human 11-β-hydroxysteroid dehydrogenase type-1 enzyme (11-β-HSD1) (Homo sapiens, UniProt P28845).
T1 construct: made in house; host or cells: Pichia pastoris (cell homogenate or microsomes)
As to the kind of experiment: Scintillation Proximity Assay, 11-β-HSD1 enzyme assay (Ki). As to conditions: human 11-β-HSD1 expressed in Pichia pastoris; Ki calculated from IC50 (Cheng-Prusoff). In kind it is biochemical. An excerpt: [1,2(n)—^3H]-cortisone was purchased from Amersham Pharmacia Biotech. Anti-cortisol monoclonal mouse antibody, clone 6D6.7 was obtained from Immunotech and Scintillation proximity assay (SPA) beads coated with monoclonal antimouse antibodies were from Amersham Pharmacia Biotech. NADPH, tetrasodium salt was from Calbiochem and glucose-6-phosphate (G-6-P) was supplied by Sigma. The human 11-β-hydroxysteroid dehydrogenase type-1 enzyme (11-β-HSD1) was expressed in Pichiapastoris. 18-β-glycyrrhetinic acid (GA) was obtained from Sigma. The serial dilutions of the compounds were performed on a Tecan Genesis RSP 150. Compounds to be tested were dissolved in DMSO (1 mM) and diluted in 50 mM Tris-HCl, pH 7.2 containing 1 mM EDTA.
The multiplication of plates was done on a WallacQuadra. The amount of the product [^3H]-cortisol, bound to the beads was determined in a Packard, Top Count microplate liquid scintillation counter.
The 11-β-HSD1 enzyme assay was carried out in 96 well microtiter plates (Packard, Optiplate) in a total well volume of 220 μL and contained 30 mM Tris-HCl, pH 7.2 with 1 mM EDTA, a substrate mixture tritiated Cortisone/NADPH (175 nM/181 μM), G-6-P (1 mM) and inhibitors in serial dilutions (9 to 0.15 μM). […]
The plates were covered with plastic film and incubated on a shaker for 30 minutes, at room temperature, before counting. The amount of [^3H]-cortisol, bound to the beads was determined in a microplate liquid scintillation counter. […] The Ki value is calculated from IC50 and the Km value is calculated using the Cheng Prushoff equation (with reversible inhibition that follows the Michaelis-Menten equation): […] [Cheng, Y. C.; Prushoff, W. H. Biochem. Pharmacol. 1973, 22, 3099-3108]. The IC50 is measured experimentally in an assay wherein the decrease of the turnover of cortisone to cortisol is dependent on the inhibition potential of each substance. […]

T1 sequence (P28845 whole entry): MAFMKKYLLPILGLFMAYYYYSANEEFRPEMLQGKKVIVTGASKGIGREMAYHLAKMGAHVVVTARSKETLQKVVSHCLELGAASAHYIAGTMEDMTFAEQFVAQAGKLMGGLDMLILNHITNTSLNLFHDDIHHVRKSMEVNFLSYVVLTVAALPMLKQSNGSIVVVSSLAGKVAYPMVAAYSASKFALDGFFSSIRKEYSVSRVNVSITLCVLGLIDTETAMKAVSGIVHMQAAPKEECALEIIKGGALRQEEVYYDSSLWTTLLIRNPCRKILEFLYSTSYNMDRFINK

What is called Ki is the equilibrium dissociation constant of an inhibitor or competing ligand from its target. Take `O=C1N=C(NC2CCCCCC2)SC12CCC2` [Example 10, 6-(Cycloheptylamino)-5-thia-7-azaspiro[3.4]oct-6-en-8-one]: the Ki was 250 nM.
With `CC1(C)SC(NCC2CCCCC2)=NC1=O` [Example 14, 2-[(cyclohexylmethyl)amino]-5,5-dimethyl-1,3-thiazol-4(5H)-one], the Ki was 107 nM.
Then `CC(C)C1SC(NC2(c3ccc(Cl)cc3)CCC2)=NC1=O` (stereo not drawn) [Example 48, 2-{[1-(4-Chlorophenyl)cyclobutyl]amino}-5-isopropyl-1,3-thiazol-4(5H)-one], with 174 nM.
